These are literature values, as cited in PubChem BioAssay AID1259409 (Chemical Carcinogenesis Research Information System (CCRIS), 2018).

For this data set, the system named is rodent chemically induced tumor inhibition, incidence and multiplicity. The data set can be described thus: CCRIS tumor inhibitor studies. To be noted: Route [Inhibitor]: ORAL, Species: HAMSTER.

As to `CC1=C(/C=C/C(C)=C/C=C/C(C)=C/C(=O)Nc2ccc(O)cc2)C(C)(C)CCC1`, the “tumour outcome (control, treated, inhibition, significance)” value is 17/17 (100%), 17/17 (100%), 0%, not significant (Carcinogen: N-NITROSOBIS(2-OXOPROPLYL)AMINE [60599-38-4], DL-ETHIONINE [67-21-0], L-METHIONINE [63-68-3], Carcinogen: N-NITROSOBIS(2-OXOPROPLYL)AMINE [60599-38-4], DL-ETHIONINE [67-21-0], L-METHIONINE [63-68-3], Dose [Inhibitor]: 0, 0.01% IN DIET FOR 55 D BEGINNING ON DAY 50, 1 WK POST LAST CARCINOGEN DOSE (STUDY DURATION: 105 D), Target Tissue: Type of Lesion: PANCREATIC DUCT, CARCINOMA, Dose [Carcinogen]: 50 MG/KG BOP ONCE ON DAY 0, THEN 20 MG/KG TWICE ON DAYS 18 AND 32, 500 MG/KG DL-ETHIONINE 1X/D FOR 4 D BEGINNING ON DAY, Dose [Carcinogen]: 50 MG/KG BOP ONCE ON DAY 0, THEN 20 MG/KG TWICE ON DAYS 18 AND 32, 500 MG/KG DL-ETHIONINE 1X/D FOR 4 D BEGINNING ON DAY, Promoter: CHOLINE-DEFICIENT DIET); 7/17 (41%), 14/15 (93%), -127%, p<0.01 (Carcinogen: N-NITROSOBIS(2-OXOPROPLYL)AMINE [60599-38-4], DL-ETHIONINE [67-21-0], L-METHIONINE [63-68-3], Carcinogen: N-NITROSOBIS(2-OXOPROPLYL)AMINE [60599-38-4], DL-ETHIONINE [67-21-0], L-METHIONINE [63-68-3], Dose [Inhibitor]: 0, 0.04% IN DIET FOR 55 D BEGINNING ON DAY 50, 1 WK POST LAST CARCINOGEN DOSE (STUDY DURATION: 105 D), Target Tissue: Type of Lesion: LIVER: INTRAHEPATIC CHOLANGIOCARCINOMA, Dose [Carcinogen]: 50 MG/KG BOP ONCE ON DAY 0, THEN 20 MG/KG TWICE ON DAYS 18 AND 32, 500 MG/KG DL-ETHIONINE 1X/D FOR 4 D BEGINNING ON DAY, Dose [Carcinogen]: 50 MG/KG BOP ONCE ON DAY 0, THEN 20 MG/KG TWICE ON DAYS 18 AND 32, 500 MG/KG DL-ETHIONINE 1X/D FOR 4 D BEGINNING ON DAY, Promoter: CHOLINE-DEFICIENT DIET); 17/17 (100%), 15/15 (100%), 0%, not significant (Carcinogen: N-NITROSOBIS(2-OXOPROPLYL)AMINE [60599-38-4], DL-ETHIONINE [67-21-0], L-METHIONINE [63-68-3], Carcinogen: N-NITROSOBIS(2-OXOPROPLYL)AMINE [60599-38-4], DL-ETHIONINE [67-21-0], L-METHIONINE [63-68-3], Dose [Inhibitor]: 0, 0.04% IN DIET FOR 55 D BEGINNING ON DAY 50, 1 WK POST LAST CARCINOGEN DOSE (STUDY DURATION: 105 D), Target Tissue: Type of Lesion: PANCREATIC DUCT, CARCINOMA, Dose [Carcinogen]: 50 MG/KG BOP ONCE ON DAY 0, THEN 20 MG/KG TWICE ON DAYS 18 AND 32, 500 MG/KG DL-ETHIONINE 1X/D FOR 4 D BEGINNING ON DAY, Dose [Carcinogen]: 50 MG/KG BOP ONCE ON DAY 0, THEN 20 MG/KG TWICE ON DAYS 18 AND 32, 500 MG/KG DL-ETHIONINE 1X/D FOR 4 D BEGINNING ON DAY, Promoter: CHOLINE-DEFICIENT DIET); 4/10 (40%), 26/30 (87%), -118%, p<0.025 (Carcinogen: N-NITROSOBIS(2-OXYPROPYL)AMINE, 60599-38-4, Dose [Inhibitor]: 0.05, 0.1 OR 0.2 MILLIMOLAR/KG DIET FOR 32 WK STARTING 1 WK AFTER THE CARCINOGEN DOSE (STUDY DURATION: 33 WK), Strain/Sex: SYRIAN/FEMALE, Target Tissue: Type of Lesion: COMMON DUCT: ADENOMA, Dose [Carcinogen]: 40 MG/KG ONCE, Promoter: NONE USED); 6/10 (60%), 29/30 (97%), -62%, not significant (Carcinogen: N-NITROSOBIS(2-OXYPROPYL)AMINE, 60599-38-4, Dose [Inhibitor]: 0.05, 0.1 OR 0.2 MILLIMOLAR/KG DIET FOR 32 WK STARTING 1 WK AFTER THE CARCINOGEN DOSE (STUDY DURATION: 33 WK), Strain/Sex: SYRIAN/FEMALE, Target Tissue: Type of Lesion: GALL BLADDER: ADENOMA, Dose [Carcinogen]: 40 MG/KG ONCE, Promoter: NONE USED); 6/10 (60%), 10/30 (33%), 45%, not significant (Carcinogen: N-NITROSOBIS(2-OXYPROPYL)AMINE, 60599-38-4, Dose [Inhibitor]: 0.05, 0.1 OR 0.2 MILLIMOLAR/KG DIET FOR 32 WK STARTING 1 WK AFTER THE CARCINOGEN DOSE (STUDY DURATION: 33 WK), Strain/Sex: SYRIAN/FEMALE, Target Tissue: Type of Lesion: LIVER: ADENOMA, Dose [Carcinogen]: 40 MG/KG ONCE, Promoter: NONE USED). Further, the “tumour outcome (control, treated, inhibition, significance)” value is 3/10 (30%), 18/30 (60%), -100%, not significant (Carcinogen: N-NITROSOBIS(2-OXYPROPYL)AMINE, 60599-38-4, Dose [Inhibitor]: 0.05, 0.1 OR 0.2 MILLIMOLAR/KG DIET FOR 32 WK STARTING 1 WK AFTER THE CARCINOGEN DOSE (STUDY DURATION: 33 WK), Strain/Sex: SYRIAN/FEMALE, Target Tissue: Type of Lesion: LUNG: ADENOMA, Dose [Carcinogen]: 40 MG/KG, ONCE, ONE WK PRIOR TO START OF AGENT TREATMENT, Promoter: NONE USED); 10/10 (100%), 30/30 (100%), 0%, not significant (Carcinogen: N-NITROSOBIS(2-OXYPROPYL)AMINE, 60599-38-4, Dose [Inhibitor]: 0.05, 0.1 OR 0.2 MILLIMOLAR/KG DIET FOR 32 WK STARTING 1 WK AFTER THE CARCINOGEN DOSE (STUDY DURATION: 33 WK), Strain/Sex: SYRIAN/FEMALE, Target Tissue: Type of Lesion: PANCREAS: ADENOMA, Dose [Carcinogen]: 40 MG/KG ONCE, Promoter: NONE USED); 4/10 (40%), 16/30 (53%), -33%, not significant (Carcinogen: N-NITROSOBIS(2-OXYPROPYL)AMINE, 60599-38-4, Dose [Inhibitor]: 0.05, 0.1 OR 0.2 MILLIMOLAR/KG DIET FOR 32 WK STARTING 1 WK AFTER THE CARCINOGEN DOSE (STUDY DURATION: 33 WK), Strain/Sex: SYRIAN/FEMALE, Target Tissue: Type of Lesion: PANCREAS: CARCINOMA, Dose [Carcinogen]: 40 MG/KG ONCE, Promoter: NONE USED); 4/12 (33%), 20/21 (95%), -188%, not significant (Carcinogen: N-NITROSOBIS(2-OXYPROPYL)AMINE, 60599-38-4, Dose [Inhibitor]: 0.05, 0.1 OR 0.2 MILLIMOLAR/KG DIET FOR 32 WK STARTING 1 WK AFTER THE CARCINOGEN DOSE (STUDY DURATION: 33 WK), Strain/Sex: SYRIAN/MALE, Target Tissue: Type of Lesion: COMMON DUCT: ADENOMA, Dose [Carcinogen]: 40 MG/KG ONCE, Promoter: NONE USED); 3/12 (25%), 20/21 (95%), -280%, not significant (Carcinogen: N-NITROSOBIS(2-OXYPROPYL)AMINE, 60599-38-4, Dose [Inhibitor]: 0.05, 0.1 OR 0.2 MILLIMOLAR/KG DIET FOR 32 WK STARTING 1 WK AFTER THE CARCINOGEN DOSE (STUDY DURATION: 33 WK), Strain/Sex: SYRIAN/MALE, Target Tissue: Type of Lesion: GALL BLADDER: ADENOMA, Dose [Carcinogen]: 40 MG/KG ONCE, Promoter: NONE USED); 6/12 (50%), 7/21 (33%), 34%, not significant (Carcinogen: N-NITROSOBIS(2-OXYPROPYL)AMINE, 60599-38-4, Dose [Inhibitor]: 0.05, 0.1 OR 0.2 MILLIMOLAR/KG DIET FOR 32 WK STARTING 1 WK AFTER THE CARCINOGEN DOSE (STUDY DURATION: 33 WK), Strain/Sex: SYRIAN/MALE, Target Tissue: Type of Lesion: LIVER: ADENOMA, Dose [Carcinogen]: 40 MG/KG ONCE, Promoter: NONE USED).
